Laboratory results published in patent publication US7906655B2, “Hepatitis C virus inhibitors” (Bristol-Myers Squibb Company, priority 2008, dated 2011).

What follows are compounds tested on HCV 1b genotype (assay: HCV Replicon assay (HCV-neo replicon cells, wild-type)). Conditions: HCV 1b genotype replicon; class symbols.
Format: cell-based
In short: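 Assay used wild-type HCV genotype 1b replicon cells carrying neo, with luciferase reporter read-outs in some formats.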

First: O=C(Cc1ccccn1)N1CCC[C@H]1c1nc2cc(CCc3ccc4[nH]c([C@@H]5CCCN5C(=O)Cc5ccccn5)nc4c3)ccc2[nH]1 [Example M43, 5,5′-(1,2-ethanediyl)bis(2-((2S)-1-(2-pyridinylacetyl)-2-pyrrolidinyl)-1H-benzimidazole)]
Second: O=C(Cc1ccccn1)N1CCC[C@H]1c1nc2ccc(C#Cc3ccc4[nH]c([C@@H]5CCCN5C(=O)[C@H]5CCCO5)nc4c3)cc2[nH]1 [Example M48, 5-((2-((2S)-1-(2-pyridinylacetyl)-2-pyrrolidinyl)-1H-benzimidazol-6-yl)ethynyl)-2-((2S)-1-((2R)-tetrahydro-2-furanylcarbonyl)-2-pyrrolidinyl)-1H-benzimidazole]
The EC50 of the first is higher: 4.57 to 99 nM for the first, under 4.57 nM for the second.

Work on CCc1ccccc1C(=O)N1CCC[C@H]1c1nc2ccc(C#Cc3ccc4[nH]c([C@@H]5CCCN5C(=O)[C@H]5CCCO5)nc4c3)cc2[nH]1 [Example M54.2] yielded an EC50 of 100 to 999 nM.

Same assay, conditions: Hepatitis C virus, HCV 1b genotype replicon; class symbols

First: O=C(Cc1ccccc1)N1C[C@@H](N2CCOCC2)C[C@H]1c1nc2cc(C#Cc3ccc4[nH]c([C@@H]5C[C@H](N6CCOCC6)CN5C(=O)Cc5ccccc5)nc4c3)ccc2[nH]1 [Example M37.3, 5,5′-(1,2-ethynediyl)bis(2-((2S,4S)-4-(4-morpholinyl)-1-(phenylacetyl)-2-pyrrolidinyl)-1H-benzimidazole)]
Second: O=C(Cc1ccccc1)N1CCC[C@H]1c1nc2cc(C#Cc3ccc4[nH]c([C@@H]5CCCN5C(=O)[C@H]5CCCO5)nc4c3)ccc2[nH]1 [Example M47, 5-((2-((2S)-1-(phenylacetyl)-2-pyrrolidinyl)-1H-benzimidazol-6-yl)ethynyl)-2-((2S)-1-((2R)-tetrahydro-2-furanylcarbonyl)-2-pyrrolidinyl)-1H-benzimidazole]
The EC50 of the first is higher: 4.57 to 99 nM for the first, under 4.57 nM for the second.

Compared with O=C(Cc1ccccc1)N1CCC[C@H]1c1nc2cc(CCc3ccc4[nH]c([C@@H]5CCCN5C(=O)Cc5ccccc5)nc4c3)ccc2[nH]1 [Example M38], O=C(Cc1ccccc1)N1CCC[C@H]1c1nc2cc(-c3ccc4nc([C@@H]5CCCN5C(=O)Cc5ccccc5)[nH]c4c3)ccc2[nH]1 [Example M39, 2,2′-bis((2S)-1-(phenylacetyl)-2-pyrrolidinyl)-1H,1′H-5,5′-bibenzimidazole] is higher in EC50: under 4.57 nM for the first, 100 to 999 nM for the second.

First: O=C(OCc1ccccc1)N1CCC[C@H]1c1nc2cc(-c3ccc4nc([C@@H]5CCCN5C(=O)OCc5ccccc5)[nH]c4c3)ccc2[nH]1 [Example M40, dibenzyl(2S,2′S)-2,2′-(1H,1′H-5,5′-bibenzimidazole-2,2′-diyl)di(1-pyrrolidinecarboxylate)]
Second: O=C(OCc1ccccc1)N1CCC[C@H]1c1nc2cc(C#Cc3ccc4[nH]c([C@@H]5CCCN5C(=O)[C@H]5CCCO5)nc4c3)ccc2[nH]1 [Example M54, benzyl (2S)-2-(5-((2-((2S)-1-((2R)-tetrahydro-2-furanylcarbonyl)-2-pyrrolidinyl)-1H-benzimidazol-5-yl)ethynyl)-1H-benzimidazol-2-yl)-1-pyrrolidine-carboxylate]
The EC50 of the first is higher: 100 to 999 nM for the first, under 4.57 nM for the second. The second is the more potent here.

Compared with O=C([C@H]1CCCO1)N1CCC[C@H]1c1nc2cc(CCc3ccc4[nH]c([C@@H]5CCCN5C(=O)[C@H]5CCCO5)nc4c3)ccc2[nH]1 [Example M42, 5,5′-(1,2-ethanediyl)bis(2-((2S)-1-((2R)-tetrahydro-2-furanylcarbonyl)-2-pyrrolidinyl)-1H-benzimidazole)], O=C(C1CCC1)N1CCC[C@H]1c1nc2cc(CCc3ccc4nc([C@@H]5CCCN5C(=O)C5CCC5)[nH]c4c3)ccc2[nH]1 [Example M45, 2-((2S)-1-(cyclobutylcarbonyl)-2-pyrrolidinyl)-5-(2-(2-((2S)-1-(cyclobutylcarbonyl)-2-pyrrolidinyl)-1H-benzimidazol-6-yl)ethyl)-1H-benzimidazole] is higher in EC50: 4.57 to 99 nM for the first, 100 to 999 nM for the second.

First: O=C(CC1CC1)N1CCC[C@H]1c1nc2cc(CCc3ccc4nc([C@@H]5CCCN5C(=O)CC5CC5)[nH]c4c3)ccc2[nH]1 [Example M44, 2-((2S)-1-(cyclopropylacetyl)-2-pyrrolidinyl)-5-(2-(2-((2S)-1-(cyclopropylacetyl)-2-pyrrolidinyl)-1H-benzimidazol-6-yl)ethyl)-1H-benzimidazole]
Second: O=C(CC1CC1)N1CCC[C@H]1c1nc2ccc(C#Cc3ccc4[nH]c([C@@H]5CCCN5C(=O)[C@H]5CCCO5)nc4c3)cc2[nH]1 [Example M52, 5-((2-((2S)-1-(cyclopropylacetyl)-2-pyrrolidinyl)-1H-benzimidazol-6-yl)ethynyl)-2-((2S)-1-((2R)-tetrahydro-2-furanylcarbonyl)-2-pyrrolidinyl)-1H-benzimidazole]
The EC50 of the first is higher: 100 to 999 nM for the first, 4.57 to 99 nM for the second. The second is the more potent here.

First: O=C(c1cccs1)N1CCC[C@H]1c1nc2cc(CCc3ccc4[nH]c([C@@H]5CCCN5C(=O)c5cccs5)nc4c3)ccc2[nH]1 [Example M45.1, 5,5′-(1,2-ethanediyl)bis(2-((2S)-1-(2-thienylcarbonyl)-2-pyrrolidinyl)-1H-benzimidazole)]
Second: O=C(Cc1cccnc1)N1CCC[C@H]1c1nc2cc(CCc3ccc4[nH]c([C@@H]5CCCN5C(=O)Cc5cccnc5)nc4c3)ccc2[nH]1 [Example M45.2, 5,5′-(1,2-ethanediyl)bis(2-((2S)-1-(3-pyridinylacetyl)-2-pyrrolidinyl)-1H-benzimidazole)]
The EC50 of the first is higher: 100 to 999 nM for the first, 4.57 to 99 nM for the second. The second is the more potent here.

First: COC(=O)N[C@H](C(=O)N1CCCC[C@H]1c1nc2ccc(-c3ccc(-c4ccc5nc([C@@H]6CCCCN6C(=O)[C@@H](NC(=O)OC)C(C)C)[nH]c5c4)cc3)cc2[nH]1)C(C)C [Example M46.3, Methyl((1S)-1-(((2S)-2-(5-(4-(2-((2S)-1-((2S)-2-((methoxycarbonyl)amino)-3-methylbutanoyl)-2-piperidinyl)-1H-benzimidazol-5-yl)phenyl)-1H-benzimidazol-2-yl)-1-piperidinyl)carbonyl)-2-methylpropyl)carbamate]
Second: O=C(c1ccccc1)N1CCC[C@H]1c1nc2ccc(C#Cc3ccc4[nH]c([C@@H]5CCCN5C(=O)[C@H]5CCCO5)nc4c3)cc2[nH]1 [Example M54.1, 5-((2-((2S)-1-benzoyl-2-pyrrolidinyl)-1H-benzimidazol-6-yl)ethynyl)-2-((2S)-1-((2R)-tetrahydro-2-furanylcarbonyl)-2-pyrrolidinyl)-1H-benzimidazole]
The EC50 of the first is lower: under 4.57 nM for the first, 4.57 to 99 nM for the second.

First: O=C([C@H]1CCCO1)N1C[C@H](O)C[C@H]1c1nc2cc(C#Cc3ccc4[nH]c([C@@H]5C[C@@H](O)CN5C(=O)[C@H]5CCCO5)nc4c3)ccc2[nH]1 [Example M47.1, (3R,5S,3′R,5′S)-5,5′-(1,2-ethynediylbis(1H-benzimidazole-5,2-diyl))bis(1-((2R)-tetrahydro-2-furanylcarbonyl)-3-pyrrolidinol)]
Second: O=C(c1ccco1)N1CCC[C@H]1c1nc2ccc(C#Cc3ccc4[nH]c([C@@H]5CCCN5C(=O)[C@H]5CCCO5)nc4c3)cc2[nH]1 [Example M51, 5-((2-((2S)-1-(2-furoyl)-2-pyrrolidinyl)-1H-benzimidazol-6-yl)ethynyl)-2-((2S)-1-((2R)-tetrahydro-2-furanylcarbonyl)-2-pyrrolidinyl)-1H-benzimidazole]
The EC50 of the first is higher: 100 to 999 nM for the first, under 4.57 nM for the second. The second is the more potent here.

First: O=C(Cc1cccnc1)N1CCC[C@H]1c1nc2ccc(C#Cc3ccc4[nH]c([C@@H]5CCCN5C(=O)[C@H]5CCCO5)nc4c3)cc2[nH]1 [Example M49, 5-((2-((2S)-1-(3-pyridinylacetyl)-2-pyrrolidinyl)-1H-benzimidazol-6-yl)ethynyl)-2-((2S)-1-((2R)-tetrahydro-2-furanylcarbonyl)-2-pyrrolidinyl)-1H-benzimidazole]
Second: O=C(c1cccnc1)N1CCC[C@H]1c1nc2ccc(C#Cc3ccc4[nH]c([C@@H]5CCCN5C(=O)[C@H]5CCCO5)nc4c3)cc2[nH]1 [Example M54.3, 5-((2-((2S)-1-(3-pyridinylcarbonyl)-2-pyrrolidinyl)-1H-benzimidazol-6-yl)ethynyl)-2-((2S)-1-((2R)-tetrahydro-2-furanylcarbonyl)-2-pyrrolidinyl)-1H-benzimidazole]
The EC50 of the first is lower: under 4.57 nM for the first, 4.57 to 99 nM for the second.

O=C(Cc1cccs1)N1CCC[C@H]1c1nc2cc(C#Cc3ccc4nc([C@@H]5CCCN5C(=O)[C@H]5CCCO5)[nH]c4c3)ccc2[nH]1 [Example M50, 5-((2-((2S)-1-((2R)-tetrahydro-2-furanylcarbonyl)-2-pyrrolidinyl)-1H-benzimidazol-6-yl)ethynyl)-2-((2S)-1-(2-thienylacetyl)-2-pyrrolidinyl)-1H-benzimidazole] and CN(C)[C@@H](C(=O)N1CCC[C@H]1c1nc2cc(C#Cc3ccc4[nH]c([C@@H]5CCCN5C(=O)[C@H]5CCCO5)nc4c3)ccc2[nH]1)c1ccccc1 [Example M53, (1R)-N,N-dimethyl-2-oxo-1-phenyl-2-((2S)-2-(5-((2-((2S)-1-((2R)-tetrahydro-2-furanylcarbonyl)-2-pyrrolidinyl)-1H-benzimidazol-5-yl)ethynyl)-1H-benzimidazol-2-yl)-1-pyrrolidinyl) ethanamine] cannot be ordered by EC50: under 4.57 nM for the first, under 4.57 nM for the second.

Same assay, conditions: Hepatitis C virus, HCV 1b genotype replicon; numeric values

Point of comparison: COC(=O)N[C@H](C(=O)N1[C@@H]2C[C@@H]2C[C@H]1c1nc2ccc(-c3ccc(-c4ccc5nc([C@@H]6C[C@H]7C[C@H]7N6C(=O)[C@@H](NC(=O)OC)C(C)C)[nH]c5c4)cc3)cc2[nH]1)C(C)C [Example M46, methyl((1S)-1-(((1R,3S,5R)-3-(6-(4-(2-((1R,3S,5R)-2-((2S)-2-((methoxycarbonyl)amino)-3-methylbutanoyl)-2-azabicyclo[3.1.0]hex-3-yl)-1H-benzimidazol-6-yl)phenyl)-1H-benzimidazol-2-yl)-2-azabicyclo[3.1.0]hex-2-yl)carbonyl)-2-methylpropyl)carbamate], EC50 0.006 nM. Against it:
- O=C(C1CC1)N1CCC[C@H]1c1nc2ccc(CCc3ccc4nc([C@@H]5CCCN5C(=O)C5CC5)[nH]c4c3)cc2[nH]1 [Example M41, 2-((2S)-1-(cyclopropylcarbonyl)-2-pyrrolidinyl)-5-(2-(2-((2S)-1-(cyclopropylcarbonyl)-2-pyrrolidinyl)-1H-benzimidazol-6-yl)ethyl)-1H-benzimidazole] — 77000-fold higher, 460 nM
- CC(C)CN[C@H]1C[C@@H](c2nc3cc(C#Cc4ccc5[nH]c([C@@H]6C[C@H](NCC(C)C)CN6C(=O)[C@H]6CCCO6)nc5c4)ccc3[nH]2)N(C(=O)[C@H]2CCCO2)C1 [Example M47.2, (3S,5S,3′S,5′S)-5,5′-(1,2-ethynediylbis(1H-benzimidazole-5,2-diyl))bis(N-isobutyl-1-((2R)-tetrahydro-2-furanylcarbonyl)-3-pyrrolidinamine)] — far higher, 610 nM
